Data published in patent US6376510B1, “Neuromuscular relaxants” (Newlaxant LLC, priority 1997, dated 2002).
Like-named read-outs stand apart in the source and are kept apart here.

Columns and labels:
[1] = tested on: anesthetized rats (evoked responses of anterior tibial muscle); experiment: In vivo neuromuscular block and cardiovascular side effects, anesthetized rat (Example 8, Table 3); settings: for Onset: time to 80-85% neuromuscular block
Procedure, shortened: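 Pentobarbital-anesthetized (i.p.), ventilated adult male rats given saline-dissolved agents i.v.; anterior tibial EMG responses to supramaximal single or train-of-four sciatic/peroneal stimuli, plus 0.1 or 1 Hz stimulation. Doses for 50%, 80%, 90% block derived. Onset: minutes to 80-85% block; RI: 25-75% spontaneous recovery; vagal block, heart rate and blood pressure changes (%) at 80-85% blocking dose.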

anesthetized monkeys = experiment: In vivo neuromuscular block and cardiovascular side effects, monkey (Example 8, Table 6); settings: for ED50: intravenous dose causing 50% neuromuscular block; for RI (recovery index): spontaneous recovery, 25-75% neuromuscular response; for Onset: time to 80-85% neuromuscular block
Description: Both electromyographic and mechanomyographic responses can be quantified.
The techniques described under a) and b) were employed in other species as needed with the modification that juvenile pigs were initially anesthetized with inhalation of halothane (Table 5) and monkeys were initially sedated with intramuscular ketamine injections prior to inducing and maintaining general anesthesia using pentobarbital and propofol administered intravenously (Table 6).

rabbits = experiment: In vivo neuromuscular block and cardiovascular side effects, rabbit (Example 8, Table 7); settings: for ED50: intravenous dose causing 50% neuromuscular block; for RI (recovery index): spontaneous recovery, 25-75% neuromuscular response; for Onset: time to 80-85% neuromuscular block
[2] = tested on: anesthetized cats (evoked responses of anterior tibial muscle); experiment: animal or person; settings: for ΔBP (change in arterial blood pressure) / ΔH (change in heart rate) / VB (vagal block): in vivo; for RI (recovery index): spontaneous recovery, 25-75% neuromuscular response; for Onset: time to 80-85% neuromuscular block
Description: a) Adult, male albino rats were anesthetized with pentobarbital injected intraperitoneally. The trachea was cannulated for artificial respiration via a small animal respirator. The carotid artery was cannulated for recording blood pressure via a transducer and heart rate by a cardiotachograph on a polygraph. One external jugular vein was cannulated for i.v. drug administration. Neuromuscular function was monitored by electromyography, recording evoked responses from the anterior tibial muscle as a result of supramaximal nerve stimuli consisting of single or “train-of-four” rectangular pulses of 0.1-0.2 msec duration every 10-12 seconds, delivered to the sciatic or common peroneal nerve by a laboratory nerve stimulator. Another mode of stimulation included repeated single stimuli delivered at 0.1 Hz or 1 Hz. […] The agents were dissolved in physiologic saline and injected intravenously at appropriate time intervals. The intensity, onset, and duration of neuromuscular block and its type were determined with each agent. Through administering several doses, the doses corresponding to 50%, 80% and 90% neuromuscular block were determined. All agents were compared with selected standard neuromuscular blocking compounds, e.g. succinylcholine, pancuronium, mivacurium, or rocuronium.
(§1) Onset=time in minutes to 80-85% neuromuscular block.
(§2) RI=recovery index, minutes, spontaneous recovery, 25-75% neuromuscular response.
(§3) VB=vagal block, %, at 80-85% neuromuscular blocking dose.
ΔHR=change in heart rate, %, at 80-85% neuromuscular blocking dose.
ΔBP=change in arterial blood pressure, %, at 80-85% neuromuscular blocking dose.
b) Adult cats were anesthetized with a mixture of 70 mg/kg alpha chloralose and 0.5 g/kg ethylurethane intraperitoneally. One thigh was fixed in a vertical position by means of a pin at the lower end of the femur. Needle electrodes were placed on the sciatic or the common peroneal nerve. A tendon of the anterior tibial muscle was attached to a force transducer and the muscle responses evoked, as described under a), were recorded. Both electromyographic and mechanomyographic responses can be quantified. Blood pressure and heart rate changes were recorded from appropriately cannulated arteries via a blood pressure transducer and cardiotachograph.

[3] = tested on: anesthetized rats (evoked responses of anterior tibial muscle); experiment: Muscle relaxant (neuromuscular blocking) properties, anesthetized rat (Example 9, Table 9); settings: rat; for ED50: intravenous dose causing 50% neuromuscular block, spread in brackets; for RI (recovery index): spontaneous recovery, 25-75% neuromuscular response; for Onset: time to 80-85% neuromuscular block
Description: The data on muscle relaxant action were obtained on anesthetized rats, and when indicated, also on juvenile pigs
Adult, male albino rats were anesthetized with pentobarbital injected intraperitoneally. Juvenile, Duroc pigs 9-12 kg body weight were anesthetized with Chloralose Nembutal sodium mixture intraperitoneally after deep sedation with inhaled halothane. The trachea was cannulated for artificial respiration via a small animal respirator. The carotid artery was cannulated for recording blood pressure via a transducer and heart rate by a cardiotachograph on a polygraph. One external jugular vein was cannulated for i.v. drug administration. Neuromuscular function was monitored by electromyography, recording evoked responses from the anterior tibial muscle as a result of supramaximal nerve stimuli consisting of single or “train-of-four” rectangular pulses of 0.1-0.2 msec duration every 10-12 seconds, delivered to the sciatic or common peroneal nerve by a laboratory nerve stimulator. Another mode of stimulation included repeated single stimuli delivered at 0.1 Hz or 1 Hz. […] The agents were dissolved in physiologic saline and injected intravenously at appropriate time intervals. The intensity, onset, and duration of neuromuscular block and its type were determined with each agent. Through administering several doses, the doses corresponding to 50%, 80% and 90% neuromuscular block were determined. All agents were compared with selected standard neuromuscular blocking compounds, e.g., rocuronium.
as §1, §2, §3
HR=change in heart rate, %, at 80-85% neuromuscular blocking dose.
BP=change in arterial blood pressure, %, at 80-85% neuromuscular blocking dose.

[4] = tested on: anesthetized juvenile pigs; experiment: animal or person; type: in vivo; settings: pig; for ED50: intravenous dose causing 50% neuromuscular block; for VB (vagal block) / ΔBP (change in arterial blood pressure) / ΔH (change in heart rate): in vivo; for RI (recovery index): spontaneous recovery, 25-75% neuromuscular response; for Onset: time to 80-85% neuromuscular block
Procedure, shortened: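 Electromyographic and mechanomyographic responses quantified. Monkeys sedated with intramuscular ketamine, then general anesthesia with intravenous pentobarbital and propofol; juvenile pigs induced with inhaled halothane.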

[5] = at 80-85% neuromuscular blocking dose
[6] = Oryctolagus cuniculus, read-out: ED50
[7] = rat, intravenous dose causing 50% neuromuscular block
[8] = rat, spontaneous recovery, 25-75% neuromuscular response
[9] = cat, intravenous dose causing 50% neuromuscular block
[10] = rat, at 80-85% neuromuscular blocking dose

Compound	Onset ([1]; rat) [min]	RI (recovery index) (anesthetized monkeys) [min]	Onset (anesthetized monkeys) [min]	RI (recovery index) (rabbits) [min]	Onset (rabbits) [min]	RI (recovery index) ([2]; cat) [min]	Onset ([2]; cat) [min]	ED50 [3]	RI (recovery index) [3]	Onset [3]	ED50 [1, 7] [mg/kg]	RI (recovery index) [1, 8] [min]	ΔBP (change in arterial blood pressure) (anesthetized monkeys; in vivo) [%]	ΔH (change in heart rate) (anesthetized monkeys; in vivo) [%]	VB (vagal block) [4] [%]	ΔBP (change in arterial blood pressure) [4] [%]	ΔH (change in heart rate) [4] [%]	RI (recovery index) [4] [min]	Onset [4] [min]	ΔBP (change in arterial blood pressure) (rabbits; in vivo) [%]	also measured
COc1ccc(CC2c3cc(OC)c(OC)cc3CC[N+]2(C)CCC(=O)OCCCCCOC(=O)CC[N+]2(C)CCc3cc(OC)c(OC)cc3C2Cc2ccc(OC)c(OC)c2)cc1OC (centres unmarked) [Atracurium, reference compound]	1.5	7.5	3	5.7	2.7	4.8	2.7	–	–	–	–	–	–	–	–	–	–	–	–	–	ED50 ([1]; Rattus norvegicus, iv): 0.32 mg/kg; VB (vagal block) ([1]; male, rat, in vivo): 0%; ΔBP (change in arterial blood pressure) ([1]; male, rat, in vivo): 0%; ΔH (change in heart rate) ([1]; male, rat, in vivo): 0%; RI (recovery index) ([1]; rat, in vivo): 2.9 min; ED50 (anesthetized monkeys; Primates, read-out: ED50): 0.186 mg/kg; ΔBP (change in arterial blood pressure) (anesthetized monkeys; [5]): 0%; ΔH (change in heart rate) (anesthetized monkeys; [5]): 0%; ED50 (rabbits; [6]): 0.03 mg/kg; ΔBP (change in arterial blood pressure) (rabbits; [5]): 0%; ΔH (change in heart rate) (rabbits; [5]): 0%; ED50 ([2]; Felis catus, iv): 0.068 mg/kg; ΔBP (change in arterial blood pressure) ([2]; cat): 0%; ΔH (change in heart rate) ([2]; cat): 0%
CC(=O)Oc1ccc(C[N+](C)(C)C2CCC(OC(=O)/C=C/C(=O)OC3CCC([N+](C)(C)Cc4ccc(OC(C)=O)c(OC(C)=O)c4)CC3)CC2)cc1OC(C)=O.[Br-].[Br-] (centres unmarked) [Bis[4-dimethylaminocyclohexyl]fumarate bis(3,4-diacetoxybenzyl bromide)]	–	–	–	–	–	–	–	2125 (475) μg/kg	1.5 (0.1) min	1.3 (0.1) min	–	–	–	–	–	–	–	–	–	–	% VB at ED80 nmb (vagal block) ([3]; in vivo): 65 (18) %; BP (change in arterial blood pressure) ([3]; in vivo): −4 (3) %; HR (change in heart rate) ([3]; in vivo): +6 (3) %
CC(=O)Oc1ccc(C[N+](C)(C)C2CCC(OC(=O)CCCC(=O)OC3CCC([N+](C)(C)Cc4ccc(OC(C)=O)c(OC(C)=O)c4)CC3)CC2)cc1OC(C)=O.[Br-].[Br-] (centres unmarked) [Bis[4-dimethylaminocyclohexyl]glutarate bis(3,4-diacetoxybenzyl bromide)]	–	–	–	–	–	–	–	700 (122) μg/kg	0.8 (0.07) min	0.75 (0.05) min	–	–	–	–	–	–	–	–	–	–	% VB at ED80 nmb (vagal block) ([3]; in vivo): 64 (22) %; BP (change in arterial blood pressure) ([3]; in vivo): −13 (6) %; HR (change in heart rate) ([3]; in vivo): −5 (3) %
COc1cc(C[N+](C)(C)C2CCC(OC(=O)CCCC(=O)OC3CCC([N+](C)(C)Cc4ccc(OC(C)=O)c(OC)c4)CC3)CC2)ccc1OC(C)=O.[Br-].[Br-] (centres unmarked) [Bis[4-dimethylaminocyclohexyl]glutarate bis(4-acetoxy-3-methoxybenzyl bromide)]	–	–	–	–	–	–	–	2075 (188) μg/kg	0.9 (0.05) min	0.84 (0.06) min	–	–	–	–	–	–	–	–	–	–	% VB at ED80 nmb (vagal block) [3, 5]: 73 (9) %; BP (change in arterial blood pressure) [3, 5]: −14 (5) %; HR (change in heart rate) [3, 5]: −5 (2) %
COc1cc2c(cc1OC)[C@@H](Cc1cc(OC)c(OC)c(OC)c1)[N+](C)(CCCOC(=O)CC/C=C/CCC(=O)OCCC[N+]1(C)CCc3cc(OC)c(OC)cc3[C@H]1Cc1cc(OC)c(OC)c(OC)c1)CC2 (some centres unmarked) [Mivacurium, reference compound]	1.8	2.4	1.9	3.9	2.8	5	3.5	–	–	–	0.14	3.9	0	0	17	0	0	3.6	1.5	0	VB (vagal block) ([1]; male, rat, in vivo): 0%; ΔBP (change in arterial blood pressure) ([1]; male, rat, in vivo): 0%; ΔH (change in heart rate) ([1]; male, rat, in vivo): 0%; ED50 (anesthetized monkeys; Primates, read-out: ED50): 0.034 mg/kg; ED50 ([4]; Sus scrofa, read-out: ED50): 0.135 mg/kg; ED50 (rabbits; [6]): 0.02 mg/kg; ΔH (change in heart rate) (rabbits; in vivo): 0%; ΔBP (change in arterial blood pressure) ([2]; cat): 0%; ΔH (change in heart rate) ([2]; cat): 0%; ED50 [2, 9]: 0.025 mg/kg
CC(=O)Oc1ccc(C[N+]2(C)C3CCCC2CC(OC(=O)CCCCC(=O)OC2CC4CCCC(C2)[N+]4(C)Cc2ccc(OC(C)=O)c(OC(C)=O)c2)C3)cc1OC(C)=O.[Br-].[Br-] (centres unmarked) [bis[N-(3,4-diacetoxybenzyl)granataninium-3-yl]adipate dibromide]	0.5	0.4	0.8	0.5	0.68	0.5	0.7	–	–	–	0.14	0.4	0	0	51	0	0	0.9	0.7	0	VB (vagal block) ([1]; rat, in vivo): 5%; ΔBP (change in arterial blood pressure) ([1]; rat, in vivo): 0%; ΔH (change in heart rate) ([1]; rat, in vivo): 0%; ED50 (anesthetized monkeys): 0.085 mg/kg; ED50 [4]: 0.14 mg/kg; ΔH (change in heart rate) (rabbits; in vivo): 0%; ED50 (rabbits): 0.167 mg/kg; ED50 [2, 9]: 0.4 mg/kg; VB (vagal block) [2]: 70%; ΔBP (change in arterial blood pressure) [2]: −40%; ΔH (change in heart rate) [2]: 0%
CC(=O)Oc1ccc(C[N+]2(C)C3CCC2CC(OC(=O)C2C4C=CC(C4)C2C(=O)OC2CC4CCC(C2)[N+]4(C)Cc2ccc(OC(C)=O)c(OC(C)=O)c2)C3)cc1OC(C)=O.[Br-].[Br-] (stereo not drawn) [bis[N-(3,4-diacetoxybenzyl)tropanium-3α-yl]trans-3,6-endomet] [bis[N-(3,4-diacetoxybenzyl)tropanium-3α-yl]trans-3,6-endomethylene-1,2,3,6-tetrahydrophthalate dibromide]	0.65	0.65	0.8	0.7	0.8	0.5	0.9	–	–	–	0.084	0.5	0	0	42	0	0	0.9	0.65	0	VB (vagal block) [1, 10]: 32%; ΔBP (change in arterial blood pressure) [1, 10]: 0%; ΔH (change in heart rate) [1, 10]: 0%; ED50 (anesthetized monkeys): 0.06 mg/kg; ED50 [4]: 0.197 mg/kg; ΔH (change in heart rate) (rabbits; in vivo): 0%; ED50 (rabbits): 0.096 mg/kg; ED50 [2, 9]: 0.12 mg/kg; VB (vagal block) [2]: 30%; ΔBP (change in arterial blood pressure) [2]: −30%; ΔH (change in heart rate) [2]: −12%
